Results: patent publication US5223637A, “KS-506 compounds” (Kyowa Hakko Kogyo Co., Ltd., priority 1988, dated 1993)
In brackets after ≈: the same amount, converted by molar mass. Where a name gives a salt, the structure may show the parent alone.

Experiments:
Solubility = assay type: physicochemical; details: for Solubility (solvents in which insoluble): hexane and water; for Solubility (solvents in which soluble): organic solvents as listed
[1] = system: PDE preparation partially purified from bovine cerebral cortex; assay: PDE-inhibiting activity (Experimental Example 1); assay type: biochemical; details: 1.2 mM cAMP, 4 U/ml calmodulin, 50 μM calcium chloride, pH 6.9, 30° C., 30 minutes
Procedure: Methanol solutions of the test compounds at various concentrations (50 μl each) were respectively added to 500 μl of a reaction mixture comprising 80 mM imidazole-hydrochloride buffer (pH 6.9), 3 mM magnesium sulfate, 0.3 mM dithiothreitol, 100 mM sodium chloride, 50 μM calcium chloride, 1.2 mM cAMP, 4 U/ml calmodulin (1U is defined as the amount which activates 50% of the maximum activity of PDE under the conditions) and 26 mU/ml PDE (1U is defined as the amount which hydrolyzes 1 μmol of cAMP in one minute), and reaction was allowed to proceed at 30° C. for 30 minutes.
The reaction was discontinued by heating at 100° C. for 5 minutes. Then, 6 μmol of manganese chloride and 0.2 U of 5'-nucleotidase (1U is defined as the amount which forms 1 μmol of phosphoric acid in one minute) were added to the reaction mixture, and reaction was allowed to proceed at 30° C. for 30 minutes. […] Inhibition rate was calculated in accordance with the following equation:
Inhibition rate=(A-B)/A×100 (%)
A: Amount of the inorganic phosphoric acid formed in the absence of a test compound
B: Amount of the inorganic phosphoric acid formed in the presence of a test compound

[2] = system: Rat Peritoneal Exudate Cells; assay: Effect on Histamine Release from Rat Peritoneal Exudate Cells (Experimental Example 2); assay type: cell-based; details: phosphatidyl-L-serine and concanavalin A stimulation; for IC50: 37° C., read-out: IC50 (concentration of a test compound which inhibits histamine release by 50%)
Procedure: Effect on Histamine Release from Rat Peritoneal Exudate Cells
1) Preparation of Suspension of Rat Abdominal Cavity Cells and Effect on Histamine Release
Rats weighing from 350 to 450 g were sacrificed by exsanguination under dry ether anesthesia, and a medium for mast cells (composition : 150 mM NaCl, 3.7 mM KCl, 3 mM Na2 HPO4, 3.5 mM KH2 PO4, 1 mM CaCl2, 5.6 mM glucose, 0.1% bovine serum albumin and 10 U/ml heparin) prepared according to the method of Sullivan, et al. [J. Immunol. 114, 1473 (1973)] was intraperitoneally injected into the animals in an amount of 15 ml/animal. After massage of the abdominal parts for 2 minutes, the animals were subjected to celiotomy to sample exudate in the abdominal cavities. The collected exudate was subjected to centrifugation at 100 xg at 4° C. for 5 minutes, and the precipitate was mixed with an appropriate amount of the ice-cooled medium for mast cells mentioned above to prepare a suspension. Then, the centrifugation and the addition of the medium were repeated three times to prepare a cell suspension wherein the final concentration of the mast cells was about 2×10^5 cells/ml. Identification of the mast cells was carried out by staining intracellular granules with 0.05% Toluidine Blue.
One milliliter portions of the thus obtained cell suspension were preincubated at 37° C. for 5 minutes, and then respectively mixed with 0.1 ml each of test compound solutions having various concentrations,followed by incubation for 5 minutes. The incubated mixtures were further mixed with 0.1 ml each of 10 μg/ml phosphatidyl-L-serine and concanavalin A, and then incubated for 15 minutes.
Spontaneous histamine release was determined under similar incubation conditions except that physiological saline was used in place of phosphatidyl-L-serine and concanavalin A.
The reaction was stopped by addition of 3 ml of ice-cooled physiological saline, and the cell suspension was subjected to centrifugation at 1100 xg at 4° C. for 10 minutes to obtain a supernatant and a residue. Histamine contents of the supernatant and the residue were measured by the fluorescence method according to the method of Komatsu [Allergy 27, 67 (1978)]. Histamine release rate was indicated as the percentage of the histamine content of the supernatant to the total histamine content of the cells. The rate of inhibition of histamine release by the test compound solution was calculated according to the following equation: [formula]

Row | Compound | Solubility (solvents in which insoluble) (Solubility) | IC50 (concentration of a test compound inhibiting 50% of the PDE activity) [1] [µg/mL] | Solubility (solvents in which soluble) (Solubility) | other results
1 | Cc1c(C)c(C(=O)Oc2c(C)c(O)c(C)c(C)c2C(=O)SSC(=O)c2c(C)c(C)c(O)c(C)c2OC(=O)c2c(C)c(C)c(O)c(C)c2O)c(O)c(C)c1O [KS-506a] | insoluble in hexane and water | 1.22 | soluble in methanol, ethanol, acetone, ethyl acetate, acetonitrile, dimethylsulfoxide and chloroform | 
2 | Cc1c(C)c(C(=O)Oc2c(C)c(O)c(C)c(C)c2SSc2c(C)c(C)c(O)c(C)c2OC(=O)c2c(C)c(C)c(O)c(C)c2O)c(O)c(C)c1O [KS-506g] | insoluble in hexane and water | 0.080 | soluble in methanol, ethanol, acetone, ethyl acetate, acetonitrile, dimethylsulfoxide and chloroform | 
3 | COC(=O)c1c(C)c(C)c(O)c(C)c1OC(=O)c1c(C)c(C)c(O)c(C)c1O [KS-506h] | insoluble in hexane and water |  | soluble in methanol, acetone, ethyl acetate, acetonitrile and dimethylsulfoxide | inhibition at 3 µg/mL ([2]; concentration of test compound 3.0 μg/ml, read-out: Release inhibition rate): 13.9%; inhibition at 10 µg/mL ([2]; concentration of test compound 10.0 μg/ml, read-out: Release inhibition rate): 59.9%; IC50 [2]: 8.2 µg/mL (≈ 21.1 µM)
4 | COc1ccc(Cc2nccc3cc(OC)c(OC)cc23)cc1OC [Papaverine hydrochloride, reference compound] |  | 60 |  | 

Further lines, with some results ahead:

Row | Solubility (solvents in which insoluble) (Solubility) | IC50 (concentration of a test compound inhibiting 50% of the PDE activity) [1] [µg/mL] | Compound | Solubility (solvents in which soluble) (Solubility) | other results
5 | insoluble in hexane and water |  | CC(=O)CCSC(=O)c1c(C)c(C)c(O)c(C)c1OC(=O)c1c(C)c(C)c(O)c(C)c1O [KS-506m] | soluble in methanol, acetone, ethyl acetate, acetonitrile and dimethylsulfoxide | inhibition at 0.5 µg/mL ([2]; concentration of test compound 0.5 μg/ml, read-out: Release inhibition rate): 27.9%; inhibition at 1.5 µg/mL ([2]; concentration of test compound 1.5 μg/ml, read-out: Release inhibition rate): 58.4%; inhibition at 5 µg/mL ([2]; concentration of test compound 5.0 μg/ml, read-out: Release inhibition rate): 83.3%; IC50 [2]: 1.2 µg/mL (≈ 2.61 µM)
6 | insoluble in hexane and water | 0.28 | Cc1c(C)c(C(=O)Oc2c(C)c(O)c(C)c(C)c2SSC(=O)c2c(C)c(C)c(O)c(C)c2OC(=O)c2c(C)c(C)c(O)c(C)c2O)c(O)c(C)c1O [KS-506x] | soluble in methanol, ethanol, acetone, ethyl acetate, acetonitrile, dimethylsulfoxide and chloroform | 
7 |  | 20 | COc1c(O)cc2cc(C)oc(=O)c2c1O [Reticurol, reference compound] |  | 
